Where a name gives a salt, the structure may show the parent alone.
What was measured:
[1] = system: male Slc:ICR mice; assay: Action against formalin-induced pain behavior in mice; type: in vivo; settings: Mus musculus, iv, 0.1 h, 6 minutes observation, read-out: Percent inhibition of pain-related behavior time (%); for inhibition in vivo at 1 mg/kg: test substance 1 mg/kg intravenously; for inhibition in vivo at 3 mg/kg: test substance 3 mg/kg intravenously
Procedure: 4 to 6-week-old male Slc:ICR mice (available from Japan SLC, Inc.) were used. A medium or a test substance (1 mg/kg or 3 mg/kg) was intravenously administered to each mouse, and immediately thereafter, 20 μL of 1% or 5% formalin was subcutaneously administered to a right hind paw of the mouse. Thereafter, the mice were quickly put into an observation cage and measured for the total time (sec) of pain-related behavior (licking or biting behavior against the right hindlimb) during 6 minutes, and an average value of the pain-related behavior time of each group was calculated.
The intensity of an analgesic action of the test substance was evaluated in terms of percent inhibition (%) of pain-related behavior time which is calculated as {(A−B)/A×100}, wherein A is an average value of the pain-related behavior time of a medium-administered group, and B is an average value of the pain-related behavior time of a test substance-administered group.

[2] = target: T1, human mGluR5 (Homo sapiens, UniProt P41594); assay: Experiment for receptor function of mGluR5 (Ca2+-dependent fluorescence, FLIPR, CHO-K1 cells stably expressing human mGluR5); type: cell-based; settings: L-glutamic acid 10 μM, Fluo-4 fluorescence
T1 construct: expressed in transfected cells
Summary of the method: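 Fluo-4-loaded CHO-K1 cells pre-incubated 2 min with test substance, then stimulated with L-glutamic acid (final 10 μM) in HBSS, pH 7.4. FLIPR Ca2+ fluorescence normalized to glutamate alone (100%) and glutamate with 10 μM MPEP (0%); IC50 estimated by logistic fit.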

[3] = system: male Slc:ICR mice; assay: Action against pain-related behavior and micturition cycle in mice with cyclophosphamide (CP)-induced acute cystitis; type: in vivo; settings: Mus musculus, iv, 0.25 h, CP 300 mg/kg i.p., 15 minutes observation; for inhibition in vivo at 1 mg/kg: test substance 1 mg/kg intravenously 3 hours after CP; for inhibition in vivo at 3 mg/kg: test substance 3 mg/kg intravenously 3 hours after CP
Procedure: An action of a test substance against visceral pain and frequent urination associated with cystitis, which was induced by intraperitoneal administration (20 mL/kg) of CP (300 mg/kg) to 4 to 5-week-old male Slc:ICR mice (available from Japan SLC, Inc.), was investigated. This experiment was performed according to a method described in European Journal of Pharmacology, 676 (2012), pp. 75-80.
Three hours after the administration of CP, a test substance (1 mg/kg or 3 mg/kg) was intravenously administered, and observation by visual inspection and video recording were performed for 15 minutes immediately thereafter. In the observation by visual inspection, four pain-related behaviors (eye opening, rounded back, leg dragging, and behavior during urination) were scored, each rated on a scale of 0-10, according to the following criteria.
Eye opening (normal: 0 point, sometimes closed or half-open eyes: 5 points, completely closed: 10 points)
Rounded back (normal: 0 point, sometimes crouched: 5 points, crouched at almost all times: 10 points)
Leg dragging (normal: 0 point, leg dragging: 10 points)
Behavior during urination (normal: 0 point, shaking hip in micturition: 10 points)
In addition, the video was played back, and the frequency of licking behavior around the abdomen as a pain-related behavior was scored, rated on a scale of 0-10, according to the following criteria.
Licking behavior around the abdomen (0 to 3 times: 0 point, 4 times to 10 times: 5 points, 11 times or more: 10 points)
Furthermore, the video was played back, and the frequency of urination (urination marks) on a filter paper was counted and taken as an index for micturition cycle.
An average value of the pain-related behavior score of each group (total score of the five items: 50 points at maximum) and an average value of the frequency of urination (urination marks) on the filter paper were determined.
The strength of an analgesic action of the test substance against the CP-induced visceral pain was evaluated in terms of percent inhibition (%) of pain-related behavior score which is calculated as {(A−B)/A×100}, wherein A is an average value of the pain-related behavior score of a medium-administered group, and B is an average value of the pain-related behavior score of a test substance-administered group.
In addition, the strength of a frequent urination inhibitory action of the test substance against the CP-induced frequent urination was evaluated in terms of percent inhibition (%) of the frequency of urination which is calculated as {(C−D)/C×100}, wherein C is an average value of the frequency of urination of a medium-administered group, and D is an average value of the frequency of urination of a test substance-administered group.

[4] = read-out: Percent inhibition of pain-related behavior score (%)
[5] = read-out: Percent inhibition of the frequency of urination (%)

T1 sequence (P41594 21-1212): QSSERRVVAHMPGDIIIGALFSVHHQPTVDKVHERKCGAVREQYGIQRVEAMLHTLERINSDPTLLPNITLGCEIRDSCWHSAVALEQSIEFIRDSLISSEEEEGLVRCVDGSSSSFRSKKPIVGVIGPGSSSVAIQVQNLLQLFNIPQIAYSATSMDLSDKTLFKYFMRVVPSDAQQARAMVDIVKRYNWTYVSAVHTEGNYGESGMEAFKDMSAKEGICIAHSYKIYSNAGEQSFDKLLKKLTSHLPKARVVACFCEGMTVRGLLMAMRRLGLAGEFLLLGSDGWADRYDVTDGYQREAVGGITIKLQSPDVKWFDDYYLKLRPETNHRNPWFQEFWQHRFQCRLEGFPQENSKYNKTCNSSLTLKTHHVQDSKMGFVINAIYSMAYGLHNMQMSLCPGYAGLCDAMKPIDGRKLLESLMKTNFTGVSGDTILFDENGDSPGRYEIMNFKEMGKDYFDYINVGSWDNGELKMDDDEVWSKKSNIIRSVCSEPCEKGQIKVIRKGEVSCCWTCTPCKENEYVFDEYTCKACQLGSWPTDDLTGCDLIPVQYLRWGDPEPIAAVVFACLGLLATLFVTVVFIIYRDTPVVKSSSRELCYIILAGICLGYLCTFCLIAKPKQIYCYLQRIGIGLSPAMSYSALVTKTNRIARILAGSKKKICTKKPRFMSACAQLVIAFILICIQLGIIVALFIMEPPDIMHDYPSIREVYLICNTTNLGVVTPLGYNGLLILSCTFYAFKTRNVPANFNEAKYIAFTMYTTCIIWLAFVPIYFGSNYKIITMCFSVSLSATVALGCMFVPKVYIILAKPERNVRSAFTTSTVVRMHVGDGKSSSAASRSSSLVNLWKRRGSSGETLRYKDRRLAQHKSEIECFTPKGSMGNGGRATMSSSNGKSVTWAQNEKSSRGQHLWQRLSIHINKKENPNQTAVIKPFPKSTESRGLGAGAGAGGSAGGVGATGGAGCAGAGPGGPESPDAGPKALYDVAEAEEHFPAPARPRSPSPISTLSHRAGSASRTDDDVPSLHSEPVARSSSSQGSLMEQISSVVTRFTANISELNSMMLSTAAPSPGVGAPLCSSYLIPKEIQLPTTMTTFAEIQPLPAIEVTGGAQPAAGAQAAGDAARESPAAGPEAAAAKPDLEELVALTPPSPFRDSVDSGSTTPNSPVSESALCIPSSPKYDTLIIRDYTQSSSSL

Row | SMILES | IC50 [2] | inhibition in vivo at 1 mg/kg ([1]; 1% formalin) | inhibition in vivo at 1 mg/kg ([1]; 5% formalin) | also measured
1 | N#Cc1ccc(-c2cc(OCc3ccc(F)cn3)nc3c2CCC3)cn1 [Example 9, 5-{2-[(5-Fluoropyridin-2-yl)methoxy]-6,7-dihydro-5H-cyclopenta[b]pyridin-4-yl}pyridine-2-carbonitrile] | – | – | 39.1% | inhibition in vivo at 1 mg/kg [3, 4]: 23.9%; inhibition in vivo at 1 mg/kg [3, 5]: 36.3%
2 | c1ccc(COc2cc(-c3cncnc3)c3c(n2)CCC3)nc1 [Example 12, 2-(Pyridin-2-ylmethoxy)-4-(pyrimidin-5-yl)-6,7-dihydro-5H-cyclopenta[b]pyridine hydrochloride] | – | 66.8% | – | –
3 | Fc1cccc(COc2cc(-c3cncnc3)c3c(n2)CCC3)c1 [Example 15, 2-[(3-Fluorobenzyl)oxy]-4-(pyrimidin-5-yl)-6,7-dihydro-5H-cyclopenta[b]pyridine] | – | – | 64% | –
4 | N#Cc1cccc(COc2cc(-c3cncnc3)c3c(n2)CCC3)c1 [Example 23, 3-({[4-(Pyrimidin-5-yl)-6,7-dihydro-5H-cyclopenta[b]pyridin-2-yl]oxy}methyl)benzonitrile] | 0.039 µM | – | 47.9% | –
5 | c1cnc(COc2cc(-c3cccnc3)c3c(n2)CCCC3)nc1 [Example 90, 4-(Pyridin-3-yl)-2-(pyrimidin-2-ylmethoxy)-5,6,7,8-tetrahydroquinoline] | 0.152 µM | – | 54.3% | –
6 | c1cnc(COc2cc(-c3cncnc3)c3c(n2)CCCC3)cn1 [Example 163, 2-(Pyrazin-2-ylmethoxy)-4-(pyrimidin-5-yl)-5,6,7,8-tetrahydroquinoline] | – | – | – | inhibition in vivo at 3 mg/kg ([1]; 5% formalin): 37.2%
7 | c1ncc(-c2cc(OCc3ncco3)nc3c2CCCC3)cn1 [Example 165, 2-(1,3-Oxazol-2-ylmethoxy)-4-(pyrimidin-5-yl)-5,6,7,8-tetrahydroquinoline] | 0.0379 µM | 52.3% | – | –
8 | Nc1ncc(-c2cc(OCc3ncccc3F)nc3c2CCCC3)cn1 [Example 191, 5-{2-[(3-Fluoropyridin-2-yl)methoxy]-5,6,7,8-tetrahydroquinolin-4-yl}pyrimidin-2-amine hydrochloride] | 0.036 µM | – | – | inhibition in vivo at 3 mg/kg [3, 4]: 20.5%; inhibition in vivo at 3 mg/kg [3, 5]: 36.5%
9 | OCc1cncc(-c2cc(OCc3ccc(F)cn3)nc3c2CCCC3)n1 [Example 216, (6-{2-[(5-Fluoropyridin-2-yl)methoxy]-5,6,7,8-tetrahydroquinolin-4-yl}pyrazin-2-yl)methanol] | – | – | 41.2% | inhibition in vivo at 3 mg/kg [3, 4]: 28.2%; inhibition in vivo at 3 mg/kg [3, 5]: 30.1%
10 | COCc1ncc(-c2cc(OCc3ccccn3)nc3c2CCCC3)s1 [Example 227, 4-[2-(Methoxymethyl)-1,3-thiazol-5-yl]-2-(pyridin-2-ylmethoxy)-5,6,7,8-tetrahydroquinoline] | 0.0362 µM | 25.6% | – | –
11 | c1ccc(COc2cc(-c3cncnc3)c3c(n2)CCCCC3)nc1 [Example 233, 2-(Pyridin-2-ylmethoxy)-4-(pyrimidin-5-yl)-6,7,8,9-tetrahydro-5H-cyclohepta[b]pyridine hydrochloride] | 0.0109 µM | 59.5% | – | –
12 | CC1CCc2c(-c3cncnc3)cc(OCc3ccccn3)nc21 (stereo not shown) [Example 238, 7-Methyl-2-(pyridin-2-ylmethoxy)-4-(pyrimidin-5-yl)-6,7-dihydro-5H-cyclopenta[b]pyridine] | 0.023 µM | – | 77.9% | –
13 | Fc1ccc(COc2cc(-c3cncnc3)c3c(n2)CCC3)cc1 [Example 257, 2-[(4-Fluorobenzyl)oxy]-4-(pyrimidin-5-yl)-6,7-dihydro-5H-cyclopenta[b]pyridine] | 0.0635 µM | – | 51.1% | –
14 | OCc1cncc(-c2cc(OCc3ccccn3)nc3c2CCC3)n1 [Example 268, {6-[2-(Pyridin-2-ylmethoxy)-6,7-dihydro-5H-cyclopenta[b]pyridin-4-yl]pyrazin-2-yl}methanol hydrochloride] | – | – | 53.9% | –
15 | Nc1ncc(-c2cc(OCc3cccc(F)n3)nc3c2CCCC3)cn1 [Example 283, 5-{2-[(6-Fluoropyridin-2-yl)methoxy]-5,6,7,8-tetrahydroquinolin-4-yl}pyrimidin-2-amine hydrochloride] | – | – | 38.8% | –

More lines, main results first:

Row | IC50 [2] | SMILES | inhibition in vivo at 1 mg/kg ([1]; 1% formalin) | inhibition in vivo at 1 mg/kg ([1]; 5% formalin) | also measured
16 | 0.00526 µM | Fc1ncccc1-c1cc(OCc2ccccn2)nc2c1CCC2 [Example 2, 4-(2-Fluoropyridin-3-yl)-2-(pyridin-2-ylmethoxy)-6,7-dihydro-5H-cyclopenta[b]pyridine hydrochloride] | 47% | – | –
17 | 0.012 µM | N#Cc1ncccc1-c1cc(OCc2ccccn2)nc2c1CCC2 [Example 3, 3-[2-(Pyridin-2-ylmethoxy)-6,7-dihydro-5H-cyclopenta[b]pyridin-4-yl]pyridine-2-carbonitrile] | 25.1% | – | –
18 | 0.153 µM | c1ccc(COc2cc(-c3cccnc3)c3c(n2)CCCC3)nc1 [Example 82, 4-(Pyridin-3-yl)-2-(pyridin-2-ylmethoxy)-5,6,7,8-tetrahydroquinoline] | – | – | inhibition in vivo at 3 mg/kg ([1]; 1% formalin): 59.8%
19 | 0.0279 µM | c1ncc(-c2cc(OCc3nccs3)nc3c2CCCC3)cn1 [Example 164, 4-(Pyrimidin-5-yl)-2-(1,3-thiazol-2-ylmethoxy)-5,6,7,8-tetrahydroquinoline] | 42.2% | – | –
20 | 0.0521 µM | OCc1ncc(-c2cc(OCc3ccccn3)nc3c2CCCC3)s1 [Example 226, {5-[2-(Pyridin-2-ylmethoxy)-5,6,7,8-tetrahydroquinolin-4-yl]-1,3-thiazol-2-yl}methanol hydrochloride] | 26.8% | – | –
21 | 0.304 µM | [O-][n+]1cncc(-c2cc(OCc3ccccn3)nc3c2CCCC3)c1 [Example 231, 4-(1-Oxidopyrimidin-5-yl)-2-(pyridin-2-ylmethoxy)-5,6,7,8-tetrahydroquinoline] | – | 66.1% | –
22 | 0.042 µM | N#Cc1ccc(-c2cc(OCc3ncc(F)cc3F)nc3c2CCC3)cn1 [Example 246, 5-{2-[(3,5-Difluoropyridin-2-yl)methoxy]-6,7-dihydro-5H-cyclopenta[b]pyridin-4-yl}pyridine-2-carbonitrile] | – | 22.8% | –
23 | 0.079 µM | Cc1ncc(-c2cc(OCc3ccc(F)cc3)nc3c2CCC3)cn1 [Example 260, 2-[(4-Fluorobenzyl)oxy]-4-(2-methylpyrimidin-5-yl)-6,7-dihydro-5H-cyclopenta[b]pyridine] | – | 42.9% | –
24 | 0.117 µM | Fc1cccnc1COc1cc(-c2cccnn2)c2c(n1)CCC2 [Example 272, 2-[(3-Fluoropyridin-2-yl)methoxy]-4-(pyridazin-3-yl)-6,7-dihydro-5H-cyclopenta[b]pyridine] | – | 40.5% | –
